The text below walks through data of ChEMBL document CHEMBL4765323, “Design, synthesis, and biological evaluation of novel miconazole analogues containing selenium as potent antifungal agents” (Eur J Med Chem, 2020).

Converted amounts (≈) assume the structure as drawn.

Type in all cases: functional
Experiment [1] deals with Candida albicans. Description: Antifungal activity against Candida albicans CPCC400616 measured after 24 hrs by micro-broth dilution assay.
In experiment [2] the test system is Candida albicans. Description: Antifungal activity against Candida albicans ATCC SC5314 measured after 24 hrs by micro-broth dilution assay.
Another experiment has as its system [Candida] zeylanoides. Description: Antifungal activity against Candida zeylanoides CMGCC2.3739 measured after 24 hrs by micro-broth dilution assay. Particulars: Dujonia zeylanoides.
For a further experiment, the system named is Cryptococcus neoformans. Description: Antifungal activity against Cryptococcus neoformans CGMCC2.3161 measured after 72 hrs by micro-broth dilution assay. On the technique in general: Broth dilution looks for growth in wells or tubes with falling amounts of substance.
The test system of a further experiment is Pichia kudriavzevii. Description: Antifungal activity against Candida krusei AS 2.1045 measured after 24 hrs by micro-broth dilution assay.
The next experiment concerns Nakaseomyces glabratus. Description: Antifungal activity against clinical isolate Candida glabrata measured after 24 hrs by micro-broth dilution assay.
For a further experiment, the system named is Candida parapsilosis. Description: Antifungal activity against Candida parapsilosis ATCC 22019 measured after 24 hrs by micro-broth dilution assay. The settings on record: Lodderomyces parapsilosis.
The next experiment has as its system Aspergillus fumigatus. Description: Antifungal activity against Aspergillus fumigatus CGMCC 3.7795 measured after 72 hrs by micro-broth dilution assay.
Experiment [3] relates to Candida albicans. Description: Antifungal activity against fluconazole-resistant Candida albicans CaR measured after 24 hrs by micro-broth dilution assay.
The test system of experiment [4] is Candida albicans. Description: Antifungal activity against fluconazole-resistant Candida albicans 17 measured after 24 hrs by micro-broth dilution assay.
In experiment [5] the test system is Candida albicans. Description: Antifungal activity against fluconazole-resistant Candida albicans 632 measured after 24 hrs by micro-broth dilution assay.
The test system of experiment [6] is Candida albicans. Description: Antifungal activity against Candida albicans 901 measured after 24 hrs by micro-broth dilution assay.
In experiment [7] the test system is Candida albicans. Description: Antifungal activity against fluconazole-resistant Candida albicans strain 904 measured after 24 hrs by micro-broth dilution assay.

As a reminder, the MIC is the lowest concentration that inhibits growth of the organism. A lower MIC goes with greater potency. As to `Cc1ccc(C[Se]C(Cn2ccnc2)c2ccc(Cl)cc2Cl)cc1` (configuration not stated), the MIC was found to be 0.03 µg/mL (≈ 0.0707 µM) with Candida albicans [1]; 0.13 µg/mL (≈ 0.306 µM) against Candida albicans [2]; 16 µg/mL (≈ 37.7 µM) in experiment [Candida] zeylanoides; 0.25 µg/mL (≈ 0.589 µM) in the experiment on Cryptococcus neoformans; 4 µg/mL (≈ 9.43 µM) in the experiment with Pichia kudriavzevii; 1 µg/mL (≈ 2.36 µM) against Nakaseomyces glabratus. For the same compound, the MIC against Candida parapsilosis amounted to 1 µg/mL (≈ 2.36 µM); against Aspergillus fumigatus, 2 µg/mL (≈ 4.71 µM); in the experiment on Candida albicans [3], 16 µg/mL (≈ 37.7 µM); against Candida albicans [4] it was 32 µg/mL (≈ 75.4 µM); against Candida albicans [5] it was 128 µg/mL (≈ 302 µM); against Candida albicans [6], 64 µg/mL (≈ 151 µM). The same compound showed an MIC in the experiment on Candida albicans [7] greater than 128 µg/mL.
For the compound `Cc1ccc(C[Se]C(Cn2ccnc2)c2ccc(F)cc2F)cc1C` (configuration not stated), the MIC in the experiment on Candida albicans [1] turned out to be 0.5 µg/mL (≈ 1.23 µM); in the experiment on Candida albicans [2], 0.13 µg/mL (≈ 0.321 µM); in [Candida] zeylanoides, 1 µg/mL (≈ 2.47 µM); in the experiment on Cryptococcus neoformans, 0.5 µg/mL (≈ 1.23 µM); against Pichia kudriavzevii, 8 µg/mL (≈ 19.7 µM); in the experiment on Nakaseomyces glabratus, 1 µg/mL (≈ 2.47 µM). The MIC in the experiment with Candida parapsilosis was 1 µg/mL (≈ 2.47 µM); in the experiment on Aspergillus fumigatus, 2 µg/mL (≈ 4.93 µM); against Candida albicans [3], 128 µg/mL (≈ 316 µM); against Candida albicans [4] it was 64 µg/mL (≈ 158 µM); in the experiment on Candida albicans [5] it was greater than 128 µg/mL; in the experiment on Candida albicans [6], 128 µg/mL (≈ 316 µM). The compound also displayed an MIC with Candida albicans [7] greater than 128 µg/mL.
As to `Clc1ccc(C[Se]C(Cn2ccnc2)c2ccc(Cl)cc2Cl)c(Cl)c1` (configuration not stated), the MIC against Candida albicans [1] turned out to be 0.06 µg/mL (≈ 0.125 µM); in the experiment with Candida albicans [2] it was 0.06 µg/mL (≈ 0.125 µM); in experiment [Candida] zeylanoides it was 2 µg/mL (≈ 4.17 µM); in the experiment with Cryptococcus neoformans, 0.5 µg/mL (≈ 1.04 µM); against Pichia kudriavzevii it was 2 µg/mL (≈ 4.17 µM); in the experiment with Nakaseomyces glabratus it was 0.25 µg/mL (≈ 0.522 µM). Besides, the MIC is 2 µg/mL (≈ 4.17 µM) against Candida parapsilosis; 0.5 µg/mL (≈ 1.04 µM) against Aspergillus fumigatus; 128 µg/mL (≈ 267 µM) with Candida albicans [3]; 16 µg/mL (≈ 33.4 µM) against Candida albicans [4]; 64 µg/mL (≈ 134 µM) in the experiment with Candida albicans [5]; 32 µg/mL (≈ 66.8 µM) in the experiment on Candida albicans [6]. In the experiment with Candida albicans [7], this compound gave an MIC of 8 µg/mL (≈ 16.7 µM).
For the compound `COc1cccc(C[Se]C(Cn2ccnc2)c2ccc(Cl)cc2Cl)c1` (configuration not stated), the MIC came out at 0.06 µg/mL (≈ 0.136 µM) against Candida albicans [1]; 0.06 µg/mL (≈ 0.136 µM) against Candida albicans [2]; 1 µg/mL (≈ 2.27 µM) in experiment [Candida] zeylanoides; 0.13 µg/mL (≈ 0.295 µM) against Cryptococcus neoformans; 1 µg/mL (≈ 2.27 µM) against Pichia kudriavzevii; 0.25 µg/mL (≈ 0.568 µM) with Nakaseomyces glabratus. In addition, the MIC stood at 0.13 µg/mL (≈ 0.295 µM) against Candida parapsilosis; 2 µg/mL (≈ 4.54 µM) against Aspergillus fumigatus; 2 µg/mL (≈ 4.54 µM) against Candida albicans [3]; 4 µg/mL (≈ 9.09 µM) in the experiment on Candida albicans [4]; 2 µg/mL (≈ 4.54 µM) against Candida albicans [5]; 1 µg/mL (≈ 2.27 µM) against Candida albicans [6]. Moreover, the MIC in the experiment with Candida albicans [7] was 1 µg/mL (≈ 2.27 µM).
For the compound `Fc1ccc(C[Se]C(Cn2ccnc2)c2ccc(F)cc2F)cc1` (configuration not stated), the MIC with Candida albicans [1] was determined as 0.06 µg/mL (≈ 0.152 µM); against Candida albicans [2], 0.03 µg/mL (≈ 0.0759 µM); in experiment [Candida] zeylanoides, 1 µg/mL (≈ 2.53 µM); against Cryptococcus neoformans, 0.5 µg/mL (≈ 1.26 µM); against Pichia kudriavzevii, 1 µg/mL (≈ 2.53 µM); against Nakaseomyces glabratus it was 1 µg/mL (≈ 2.53 µM). Moreover, the MIC in the experiment on Candida parapsilosis amounted to 0.25 µg/mL (≈ 0.632 µM); in the experiment with Aspergillus fumigatus, 2 µg/mL (≈ 5.06 µM); against Candida albicans [3], 8 µg/mL (≈ 20.2 µM); with Candida albicans [4], 32 µg/mL (≈ 81 µM); in the experiment with Candida albicans [5] it was 32 µg/mL (≈ 81 µM); with Candida albicans [6] it was 4 µg/mL (≈ 10.1 µM). Further, the MIC against Candida albicans [7] came out at 8 µg/mL (≈ 20.2 µM).
As for `COc1ccc(C[Se]C(Cn2ccnc2)c2ccc(Cl)cc2Cl)cc1` (configuration not stated), the MIC against Candida albicans [1] came to 0.13 µg/mL (≈ 0.295 µM); in the experiment on Candida albicans [2], 0.13 µg/mL (≈ 0.295 µM); in [Candida] zeylanoides, 8 µg/mL (≈ 18.2 µM); against Cryptococcus neoformans, 0.25 µg/mL (≈ 0.568 µM); against Pichia kudriavzevii it was 8 µg/mL (≈ 18.2 µM); in the experiment with Nakaseomyces glabratus, 0.5 µg/mL (≈ 1.14 µM). Further, the MIC against Candida parapsilosis worked out at 0.5 µg/mL (≈ 1.14 µM); in the experiment with Aspergillus fumigatus, 1 µg/mL (≈ 2.27 µM); with Candida albicans [3], 32 µg/mL (≈ 72.7 µM); in the experiment with Candida albicans [4], 16 µg/mL (≈ 36.3 µM); with Candida albicans [5], 128 µg/mL (≈ 291 µM); against Candida albicans [6], 16 µg/mL (≈ 36.3 µM). In the experiment with Candida albicans [7], this compound showed a minimal inhibitory concentration (MIC) of 128 µg/mL (≈ 291 µM).
Consider `Fc1ccc(C(Cn2ccnc2)[Se]Cc2ccc(Cl)cc2)c(F)c1` (configuration not stated), for which the MIC is 0.5 µg/mL (≈ 1.21 µM) with Candida albicans [1]; 0.03 µg/mL (≈ 0.0729 µM) with Candida albicans [2]; 1 µg/mL (≈ 2.43 µM) in experiment [Candida] zeylanoides; 0.5 µg/mL (≈ 1.21 µM) in the experiment with Cryptococcus neoformans; 0.5 µg/mL (≈ 1.21 µM) against Pichia kudriavzevii; 1 µg/mL (≈ 2.43 µM) in the experiment on Nakaseomyces glabratus. The MIC in the experiment on Candida parapsilosis was 0.13 µg/mL (≈ 0.316 µM); against Aspergillus fumigatus it was 1 µg/mL (≈ 2.43 µM); in the experiment on Candida albicans [3], 16 µg/mL (≈ 38.9 µM); against Candida albicans [4] it was 8 µg/mL (≈ 19.4 µM); against Candida albicans [5], 64 µg/mL (≈ 155 µM); against Candida albicans [6], 8 µg/mL (≈ 19.4 µM). Besides, in the experiment with Candida albicans [7], the MIC turned out to be 2 µg/mL (≈ 4.86 µM).
On to `Clc1ccc(C(Cn2ccnc2)[Se]Cc2ccc(Br)cc2)c(Cl)c1` (configuration not stated), for which the MIC with Candida albicans [1] was found to be 0.25 µg/mL (≈ 0.511 µM); against Candida albicans [2], 0.06 µg/mL (≈ 0.123 µM); in experiment [Candida] zeylanoides, 2 µg/mL (≈ 4.09 µM); in the experiment on Cryptococcus neoformans, 0.5 µg/mL (≈ 1.02 µM); in the experiment on Pichia kudriavzevii it was 32 µg/mL (≈ 65.4 µM); with Nakaseomyces glabratus, 0.5 µg/mL (≈ 1.02 µM). The MIC in the experiment on Candida parapsilosis is 4 µg/mL (≈ 8.18 µM); with Aspergillus fumigatus, 1 µg/mL (≈ 2.04 µM); in the experiment with Candida albicans [3] it was 128 µg/mL (≈ 262 µM); in the experiment on Candida albicans [4], 8 µg/mL (≈ 16.4 µM); in the experiment on Candida albicans [5] it was greater than 128 µg/mL; with Candida albicans [6] it was 64 µg/mL (≈ 131 µM). For the same compound, in the experiment with Candida albicans [7], the MIC amounted to 128 µg/mL (≈ 262 µM).
`Fc1ccc(C(Cn2ccnc2)[Se]Cc2ccc(Br)cc2)c(F)c1` (configuration not stated): the MIC against Candida albicans [1] is 0.25 µg/mL (≈ 0.548 µM); in the experiment with Candida albicans [2], 0.13 µg/mL (≈ 0.285 µM); in experiment [Candida] zeylanoides, 0.25 µg/mL (≈ 0.548 µM); against Cryptococcus neoformans, 0.5 µg/mL (≈ 1.1 µM); against Pichia kudriavzevii, 1 µg/mL (≈ 2.19 µM); against Nakaseomyces glabratus it was 2 µg/mL (≈ 4.38 µM). For the same compound, the MIC with Candida parapsilosis stood at 0.25 µg/mL (≈ 0.548 µM); with Aspergillus fumigatus, 1 µg/mL (≈ 2.19 µM); against Candida albicans [3], 64 µg/mL (≈ 140 µM); with Candida albicans [4], 2 µg/mL (≈ 4.38 µM); in the experiment with Candida albicans [5] it was 8 µg/mL (≈ 17.5 µM); against Candida albicans [6], 2 µg/mL (≈ 4.38 µM). The compound also showed an MIC against Candida albicans [7] of 2 µg/mL (≈ 4.38 µM).
